Test results published in patent US9834750B2, “Cell-to-cell communication without exchange of mediating diffusible factors or using any physical contact between cells” (priority 2013, dated 2017).
Each block holds one compound with its values, some of them ahead of it.

Experiments:
P2X3 = biological target: T1, P2X3 (Mus musculus, UniProt Q3UR32); experiment: ATP-induced [Ca++]i transients in DRG neurons, Fura-2 fluorescence imaging, dish-in-dish culture; assay type: cell-based
T1 construct: endogenous in cells; host or cells: primary lumbosacral DRG neurons of C57BL/6J mice
T1 sequence (Q3UR32 1-397): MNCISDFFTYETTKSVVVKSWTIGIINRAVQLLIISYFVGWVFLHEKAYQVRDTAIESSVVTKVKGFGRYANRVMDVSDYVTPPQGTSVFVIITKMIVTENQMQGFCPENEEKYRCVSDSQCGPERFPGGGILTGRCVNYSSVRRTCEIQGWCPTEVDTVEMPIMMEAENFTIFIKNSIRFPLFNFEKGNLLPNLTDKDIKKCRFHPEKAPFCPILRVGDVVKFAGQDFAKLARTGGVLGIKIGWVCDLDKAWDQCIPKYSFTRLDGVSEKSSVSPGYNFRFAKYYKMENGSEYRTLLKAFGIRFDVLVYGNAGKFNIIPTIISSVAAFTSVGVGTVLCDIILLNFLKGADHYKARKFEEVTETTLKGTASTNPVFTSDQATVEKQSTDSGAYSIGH
Description: (§1) DRG tissues were obtained from C57BL/6J (Jackson Laboratory; 20 g). Upon arrival, mice were housed in microisolator caging and maintained on 12 hour light/dark cycle in a temperature controlled environment. The mice had access to food and water ad libitum for two weeks. All studies were carried out in accordance with the guidelines of the Institutional Animal Care and Use Committee (IACUC) of Charles R. Drew University of Medicine and Science and the NIH Guide for the Care and Use of Laboratory Animals.
(§2) Lumbosacral adult DRG cells (level L1-S-1) were collected under sterile technique and placed in ice cold medium Dulbecco's Modified Eagle's Medium (DMEM; Sigma-Aldrich, St. Louis, Mo.). Adhering fat and connective tissue were removed and each isolated DRG tissue was minced with sterile scissors and placed immediately in a medium consisting of 5 ml of DMDM containing 0.5 mg/ml of trypsin (Sigma Type III), 1 mg/ml of collagenase (Sigma Type IA) and 0.1 mg/ml of DNAase (Sigma Type III) and all kept at 37 degrees Centigrade for 30 minutes with agitation.
(§3) After dissociation of the ganglia soybean trypsin inhibitor (Sigma Type III) was used to terminate cell dissociation. Cell suspensions were centrifuged for one minute at 1000 rpm and the cell pellets were resuspended in DMEM supplemented with 5% fetal bovine serum (FBS), 2 mM glutamine-penicillin-streptomycin mixture, 1 ug/ml DNAase, and 5 ng/ml of NGF (Sigma).
(§4) Cells were then placed on Matrigel® (Invitrogen, Carlsbad, Calif.) coated 15-mm coverslips (Collaborative Research Co., Bedford Pa.) and kept at 37 degrees Centigrade in a 5% CO2 incubator for 24 hours, then given fresh media and maintained in primary culture until used for experimental procedures.
(§5) Adjacent culture of SH-SY5Y cells with dorsal root ganglion cells occurred as follows. A dish-in-dish system involving a physically separate outer “surround” cell culture well and a separate inner “center” cell culture well was constructed, both wells capable of being managed independently (FIG. 1).
(§6) Mouse DRG neuron cells were seeded in the center well which medium consisted of 5% FBS, 2 mM glutamine-penicillin-streptomycin mixture, 1 ug/mL DNAase, and 5 ng/mL NGF for 24 hours at 5% CO2 and 37 degrees Centigrade. Thus, the two cell populations were co-dish-in-dish cultured, separated but adjacent to each other for 12 hours prior to assessing [Ca++]i response to chemical stimulation. […]
Culture of normal control DRG cells juxtaposed with media containing no cells took place as follows. To establish additional control conditions for assessing the effect of non-diffusible cell-to-cell communication two additional controls were performed: 1) dish-in-dish culture of normal control DRG cells in the center culture well with DRG cell media only in the surround culture well; and 2) dish-in-dish culture of normal control DRG cells in the center culture well with human SH-SY5Y neuroblastoma cell media only in the surround culture well.
(§7) [Ca++]i fluorescence imaging was carried out. DRG neurons were loaded with fluorescent dye […] Fura-2 AM (Invitrogen, Carlsbad, Calif.) for 45 minutes at 37 degrees Centigrade in HBSS supplemented with 20 mM HEPES, pH 7.4. The cover slips were mounted in an RC-26 recording chamber P-4 (Warner Instruments, Hamden, Conn.) and placed on a stage of an Olympus IX51 inverted microscope (Olympus America, Center Valley, Pa.). Observations were made at room temperature (20-23 degrees Centigrade) with a 20× UApo/340 objective. Neurons were bathed and perfused with HBSS buffer using gravity at a rate of 1-2 ml/min.
Fluorescence intensity at 505 nm with excitation at 334 nm and 380 nm were captured as digital images (sampling rates from 0.1 to 2 seconds). Regions of interest were identified within the soma from which quantitative measurements were made by re-analysis of stored image sequences using Slidebook® Digital Microscopy software. […]

TRPV1 = biological target: T2, TRPV1 (Mus musculus, UniProt Q704Y3); experiment: capsaicin-induced [Ca++]i transients in DRG neurons, Fura-2 fluorescence imaging, dish-in-dish culture; assay type: cell-based
T2 construct: endogenous in cells; host or cells: primary lumbosacral DRG neurons of C57BL/6J mice
T2 sequence (Q704Y3 whole entry): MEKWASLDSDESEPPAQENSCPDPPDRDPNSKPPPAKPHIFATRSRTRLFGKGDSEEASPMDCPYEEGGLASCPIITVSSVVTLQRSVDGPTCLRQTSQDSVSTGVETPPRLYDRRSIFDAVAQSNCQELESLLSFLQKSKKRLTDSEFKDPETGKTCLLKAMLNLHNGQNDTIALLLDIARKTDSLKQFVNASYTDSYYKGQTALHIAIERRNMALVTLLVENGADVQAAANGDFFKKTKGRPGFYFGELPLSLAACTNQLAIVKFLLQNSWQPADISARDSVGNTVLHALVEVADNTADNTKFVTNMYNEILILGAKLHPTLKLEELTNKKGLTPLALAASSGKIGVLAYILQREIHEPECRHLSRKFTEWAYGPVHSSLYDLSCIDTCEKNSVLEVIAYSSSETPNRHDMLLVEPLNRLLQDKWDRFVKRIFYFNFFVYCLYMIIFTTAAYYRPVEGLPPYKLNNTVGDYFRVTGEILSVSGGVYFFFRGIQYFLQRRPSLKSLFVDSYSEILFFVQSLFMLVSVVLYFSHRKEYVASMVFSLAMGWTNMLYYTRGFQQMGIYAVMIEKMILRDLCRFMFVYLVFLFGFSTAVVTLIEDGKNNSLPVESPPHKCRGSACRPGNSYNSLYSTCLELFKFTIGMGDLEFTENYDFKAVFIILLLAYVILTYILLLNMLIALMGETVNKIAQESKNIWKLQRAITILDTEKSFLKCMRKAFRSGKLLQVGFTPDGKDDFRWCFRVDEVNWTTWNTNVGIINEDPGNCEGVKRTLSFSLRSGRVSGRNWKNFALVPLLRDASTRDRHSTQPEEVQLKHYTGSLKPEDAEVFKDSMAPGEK
Description: as §1, §2, §3, §4, §5, §6, §7
(§8) Fluorescence intensity at 505 nm with excitation at 334 nm and 380 nm were captured as digital images (sampling rates from 0.1 to 2 seconds). Regions of interest were identified within the soma from which quantitative measurements were made by re-analysis of stored image sequences using Slidebook® Digital Microscopy software. [Ca++]i was determined by ratiometric method of Fura-2 fluorescence from calibration of a series of buffered Ca++ standards. E2 was applied acutely for five minutes onto the experimental chamber.
Repeated application of drugs was achieved by superfusion into individual neurons in a rapid mixing chamber for specific intervals (100-500 ms). […]

DRG neurons = experiment: basal [Ca++]i in DRG neurons, Fura-2 fluorescence imaging; assay type: cell-based, mouse; conditions: E2 100 nM by itself
Description: as §1
Lumbosacral adult DRG cells (level L1-S-1) were collected under sterile technique and placed in ice cold medium Dulbecco's Modified Eagle's Medium (DMEM; Sigma-Aldrich, St. Louis, Mo.). […]
[Ca++]i fluorescence imaging was carried out. […]
as §8, with “E2 was applied acutely for five minutes onto the experimental chamber.” left out
All of the data were expressed as the mean±SEM. […]

[1] = neuroblastoma SH-SY5Y cells in the surround well

SMILES: O=C(O)CN(CC(=O)O)c1ccccc1OCCOc1ccccc1N(CC(=O)O)CC(=O)O [BAPTA]
effect on ATP-induced [Ca++]i spikes (P2X3; BAPTA 10 mM, Ca++-free media): eliminated

SMILES: C[C@]12CC[C@@H]3c4ccc(O)cc4CC[C@H]3[C@@H]1CC[C@@H]2O [E2, 17 β-estradiol]
ATP-induced [Ca++]i transient after E2 (P2X3; ATP 10 uM after five-minute incubation with E2 (100 nM), mean±SEM, n=5, p<0.05): 171.17 ± 48.9 nM
reversibility of the effect on ATP-induced [Ca++]i (P2X3; E2 100 nM): reversible
effect on ATP-induced [Ca++]i transients (P2X3; E2 100 nM, control conditions): attenuated
effect of E2 on ATP-induced P2X3-mediated [Ca++]i (P2X3; [1]): abolished
peak of capsaicin-induced [Ca++]i transients with E2 (TRPV1; capsaicin 100 nM, E2 100 nM applied first, mean±SEM, n=5, p<0.05): 175.01 ± 34.8 nM
effect on capsaicin-induced TRPV1-mediated [Ca++]i flux (TRPV1; [1]): attenuated
effect on basal [Ca++]i (DRG neurons): no effect

SMILES: Nc1ncnc2c1ncn2[C@@H]1O[C@H](COP(=O)(O)OP(=O)(O)OP(=O)(O)O)[C@@H](O)[C@H]1O [ATP]
[Ca++]i spikes on ATP application (P2X3; 10 second application of ATP 10 uM, DRG neurons in center and surround wells): equal [Ca++]i spikes
ATP-induced [Ca++]i responses, initial stimulation (P2X3; ATP 10 uM, DRG neurons exposed to KCL (50 mM) in the surround well, p<0.001): four fold higher
ATP-induced [Ca++]i response with media only in surround well (P2X3; ATP 10 uM, SH-SY5Y media without cells in the surround well): as occurred under control conditions
ATP-induced [Ca++]i response (P2X3; ATP 10 uM, neuroblastoma SH-SY5Y cells in the surround well, n=4): 193 ± 40.6 nM
ATP-induced [Ca++]i responses, subsequent stimulation (P2X3; ATP 10 uM, ten minute intervals, DRG neurons exposed to KCL (50 mM) in the surround well, p<0.001): significantly reduced
ATP-induced [Ca++]i transient (P2X3; initial ATP (10 uM) response before E2, DRG cells in surround well (control), mean±SEM, n=5): 425.86 ± 49.5 nM
ATP-stimulated [Ca++]i with KCL media only in surround well (P2X3; media with 50 mM KCL without cells in the surround well): as was observed in the control

Further lines, results first:

effect on ATP-induced [Ca++]i transients (P2X3; pretreatment with PPADS 5 uM, ATP 10 uM): blocked
SMILES: Cc1nc(N=Nc2ccc(S(=O)(=O)O)cc2S(=O)(=O)O)c(COP(=O)(O)O)c(C=O)c1O [PPADS]

reversibility of the effect of capsaicin (TRPV1): not reversible
peak of capsaicin-induced [Ca++]i transients (TRPV1; capsaicin 100 nM without E2, control conditions, mean±SEM, n=5): 399.21 ± 44.5 nM
capsaicin-induced [Ca++]i response with media only in surround well (TRPV1; capsaicin 100 nM, SH-SY5Y media without cells in the surround well): as occurred under control conditions
capsaicin-induced [Ca++]i response (TRPV1; capsaicin 100 nM, neuroblastoma SH-SY5Y cells in the surround well, n=4): 145.90 ± 28.84 nM
[Ca++]i spikes on capsaicin application (TRPV1; capsaicin 3 second 100 nM by fast superfusion): produced [Ca++]i spikes
SMILES: COc1cc(CNC(=O)CCCC/C=C/C(C)C)ccc1O [capsaicin]

effect on capsaicin-induced [Ca++]i spikes (TRPV1; capsazepine 100 nM, capsaicin 100 nM 3 second): almost completely blocked
SMILES: Oc1cc2c(cc1O)CN(C(=S)NCCc1ccc(Cl)cc1)CCC2 [capsazepine]

effect on the 17 β-estradiol inhibitory effect on ATP-induced [Ca++]i transients (P2X3; ICI 182,780 1 nM): blocked
SMILES: C[C@]12CC[C@@H]3c4ccc(O)cc4C[C@@H](CCCCCCCCC[S+]([O-])CCCC(F)(F)C(F)(F)F)[C@H]3[C@@H]1CC[C@@H]2O (some centres unmarked) [ICI 182,780]
